How the values were obtained:
Type in all cases: in vivo
[1] = test system: barnyardgrass (Echinochloa crus-galli); assay: Test A pre/postemergence
Summary of the method: (§1)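 Visual injury scores on a 0–100 scale, 100 being complete control, were assigned roughly ten days after treatment by comparison with untreated greenhouse controls. Test chemicals, formulated with surfactant in non-phytotoxic solvent, were sprayed onto soil preemergence and onto 1–2-leaf plants 2–10 cm tall postemergence.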

[2] = test system: crabgrass (Digitaria sanguinalis); assay: Test A pre/postemergence
Summary of the method: as §1

[3] = test system: giant foxtail (Setaria faberi); assay: Test A pre/postemergence
Summary of the method: as §1

[4] = test system: morningglory (Ipomoea spp.); assay: Test A pre/postemergence
Summary of the method: as §1

[5] = test system: redroot pigweed (Amaranthus retroflexus); assay: Test A pre/postemergence
Summary of the method: as §1

[6] = test system: velvetleaf (Abutilon theophrasti); assay: Test A pre/postemergence
Summary of the method: as §1

[7] = test system: cocklebur (Xanthium strumarium); assay: Test C pre/postemergence; conditions: Postemergence; for Cocklebur plant response rating: 125 g ai/ha, scale 0 to 100 (0 no effect, 100 complete control)
Summary of the method: (§2)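 Percent control is a visual rating (0 none, 100 complete) taken against untreated plants after 12 to 14 days of greenhouse growth. Applications were made preemergence to seeded pots and postemergence to plants at the 1- to 4-leaf stage, in a non-phytotoxic surfactant-containing solvent.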

[8] = test system: crabgrass (Digitaria sanguinalis); assay: Test C pre/postemergence; conditions: Postemergence; for Crabgrass plant response rating: 125 g ai/ha, scale 0 to 100 (0 no effect, 100 complete control)
Summary of the method: as §2

[9] = test system: johnsongrass (Sorghum halepense); assay: Test C pre/postemergence; conditions: Postemergence; for Johnsongrass plant response rating: 125 g ai/ha, scale 0 to 100 (0 no effect, 100 complete control)
Summary of the method: as §2

[10] = test system: kochia (Kochia scoparia); assay: Test C pre/postemergence; conditions: Postemergence; for Kochia plant response rating: 125 g ai/ha, scale 0 to 100 (0 no effect, 100 complete control)
Summary of the method: as §2

[11] = test system: pigweed (Amaranthus retroflexus); assay: Test C pre/postemergence; conditions: Postemergence; for Pigweed plant response rating: 125 g ai/ha, scale 0 to 100 (0 no effect, 100 complete control)
Summary of the method: as §2

[12] = Postemergence, 125 g ai/ha, 0 to 100 scale (0 no effect, 100 complete control)
[13] = Postemergence, 500 g ai/ha, 0 to 100 scale (0 no effect, 100 complete control)
[14] = Preemergence, 125 g ai/ha, 0 to 100 scale where 0 is no effect and 100 is complete control, approximately ten days
[15] = Preemergence, 500 g ai/ha, 0 to 100 scale where 0 is no effect and 100 is complete control, approximately ten days

`COC(=O)c1nc(-c2ccc(Cl)cc2)nc(N)c1Br` [Compound 83] was tested, and the “Plant response rating, Barnyardgrass” value [1, 12] was 0, the “Plant response rating, Barnyardgrass” value [1, 13] was 10 and the “Plant response rating, Barnyardgrass” value [1, 14] was 0. For the same compound, the “Plant response rating, Barnyardgrass” value [1, 15] was 5, the “Plant response rating, Crabgrass” value [2, 12] was 0 and the “Plant response rating, Crabgrass” value [2, 13] was 10. For the same compound, the “Plant response rating, Crabgrass” value [2, 14] was 0, the “Plant response rating, Crabgrass” value [2, 15] was 5 and the “Plant response rating, Foxtail, Giant” value [3, 12] was 0. The “Plant response rating, Foxtail, Giant” value [3, 13] was 10, the “Plant response rating, Foxtail, Giant” value [3, 14] was 0 and the “Plant response rating, Foxtail, Giant” value [3, 15] was 0. The “Plant response rating, Morningglory” value [4, 12] was 55, the “Plant response rating, Morningglory” value [4, 13] was 75 and the “Plant response rating, Morningglory” value [4, 14] was 0. The “Plant response rating, Morningglory” value [4, 15] was 10, the “Plant response rating, Pigweed” value [5, 12] was 70 and the “Plant response rating, Pigweed” value [5, 13] was 85. The “Plant response rating, Pigweed” value [5, 14] was 20, the “Plant response rating, Pigweed” value [5, 15] was 50 and the “Plant response rating, Velvetleaf” value [6, 12] was 90. The “Plant response rating, Velvetleaf” value [6, 13] was 90, the “Plant response rating, Velvetleaf” value [6, 14] was 15 and the “Plant response rating, Velvetleaf” value [6, 15] was 30. For the same compound, the “Plant response rating (scale of 0 to 100), Cocklebur” value ([7]; 16 g ai/ha) was 60, the “Plant response rating (scale of 0 to 100), Cocklebur” value ([7]; 31 g ai/ha) was 70 and the “Plant response rating (scale of 0 to 100), Cocklebur” value ([7]; 62 g ai/ha) was 70. The “Cocklebur plant response rating” value [7] was 100, the “Plant response rating (scale of 0 to 100), Crabgrass” value ([8]; 16 g ai/ha) was 25 and the “Plant response rating (scale of 0 to 100), Crabgrass” value ([8]; 31 g ai/ha) was 45. The “Plant response rating (scale of 0 to 100), Crabgrass” value ([8]; 62 g ai/ha) was 65, the “Crabgrass plant response rating” value [8] was 75 and the “Plant response rating (scale of 0 to 100), Johnsongrass” value ([9]; 16 g ai/ha) was 10. For the same compound, the “Plant response rating (scale of 0 to 100), Johnsongrass” value ([9]; 31 g ai/ha) was 55, the “Plant response rating (scale of 0 to 100), Johnsongrass” value ([9]; 62 g ai/ha) was 55 and the “Johnsongrass plant response rating” value [9] was 70. For the same compound, the “Plant response rating (scale of 0 to 100), Kochia” value ([10]; 16 g ai/ha) was 65, the “Plant response rating (scale of 0 to 100), Kochia” value ([10]; 31 g ai/ha) was 75 and the “Plant response rating (scale of 0 to 100), Kochia” value ([10]; 62 g ai/ha) was 75. For the same compound, the “Kochia plant response rating” value [10] was 90, the “Plant response rating (scale of 0 to 100), Pigweed” value ([11]; 16 g ai/ha) was 95 and the “Plant response rating (scale of 0 to 100), Pigweed” value ([11]; 31 g ai/ha) was 95. For the same compound, the “Plant response rating (scale of 0 to 100), Pigweed” value ([11]; 62 g ai/ha) was 100 and the “Pigweed plant response rating” value [11] was 100.

For `Nc1nc(-c2ccc(Cl)cc2)nc(C(=O)O)c1Br` [Compound 88], the “Plant response rating, Barnyardgrass” value [1, 12] was 50, the “Plant response rating, Barnyardgrass” value [1, 13] was 85 and the “Plant response rating, Barnyardgrass” value [1, 14] was 10. The “Plant response rating, Barnyardgrass” value [1, 15] was 55, the “Plant response rating, Crabgrass” value [2, 12] was 60 and the “Plant response rating, Crabgrass” value [2, 13] was 85. The “Plant response rating, Crabgrass” value [2, 14] was 35, the “Plant response rating, Crabgrass” value [2, 15] was 85 and the “Plant response rating, Foxtail, Giant” value [3, 12] was 80. The “Plant response rating, Foxtail, Giant” value [3, 13] was 90, the “Plant response rating, Foxtail, Giant” value [3, 14] was 10 and the “Plant response rating, Foxtail, Giant” value [3, 15] was 50. The “Plant response rating, Morningglory” value [4, 12] was 60, the “Plant response rating, Morningglory” value [4, 13] was 85 and the “Plant response rating, Morningglory” value [4, 14] was 10. For the same compound, the “Plant response rating, Morningglory” value [4, 15] was 90, the “Plant response rating, Pigweed” value [5, 12] was 90 and the “Plant response rating, Pigweed” value [5, 13] was 95. For the same compound, the “Plant response rating, Pigweed” value [5, 14] was 80, the “Plant response rating, Pigweed” value [5, 15] was 100 and the “Plant response rating, Velvetleaf” value [6, 12] was 90. The “Plant response rating, Velvetleaf” value [6, 13] was 95, the “Plant response rating, Velvetleaf” value [6, 14] was 10 and the “Plant response rating, Velvetleaf” value [6, 15] was 70. The “Plant response rating (scale of 0 to 100), Cocklebur” value ([7]; 31 g ai/ha) was 90, the “Plant response rating (scale of 0 to 100), Cocklebur” value ([7]; 62 g ai/ha) was 90 and the “Cocklebur plant response rating” value [7] was 90. The “Plant response rating, Cocklebur” value ([7]; 250 g ai/ha, scale 0 to 100) was 90, the “Plant response rating (scale of 0 to 100), Crabgrass” value ([8]; 31 g ai/ha) was 75 and the “Plant response rating (scale of 0 to 100), Crabgrass” value ([8]; 62 g ai/ha) was 80. The “Crabgrass plant response rating” value [8] was 80, the “Plant response rating, Crabgrass” value ([8]; 250 g ai/ha, scale 0 to 100) was 85 and the “Plant response rating (scale of 0 to 100), Johnsongrass” value ([9]; 31 g ai/ha) was 30. For the same compound, the “Plant response rating (scale of 0 to 100), Johnsongrass” value ([9]; 62 g ai/ha) was 45, the “Johnsongrass plant response rating” value [9] was 75 and the “Plant response rating, Johnsongrass” value ([9]; 250 g ai/ha, scale 0 to 100) was 85. The “Plant response rating (scale of 0 to 100), Kochia” value ([10]; 31 g ai/ha) was 85, the “Plant response rating (scale of 0 to 100), Kochia” value ([10]; 62 g ai/ha) was 95 and the “Kochia plant response rating” value [10] was 95. For the same compound, the “Plant response rating, Kochia” value ([10]; 250 g ai/ha, scale 0 to 100) was 95, the “Plant response rating (scale of 0 to 100), Pigweed” value ([11]; 31 g ai/ha) was 95 and the “Plant response rating (scale of 0 to 100), Pigweed” value ([11]; 62 g ai/ha) was 100. The “Pigweed plant response rating” value [11] was 100 and the “Plant response rating, Pigweed” value ([11]; 250 g ai/ha, scale 0 to 100) was 100.
